Here are results for four molecules from PMC9908614 (Frontiers in Microbiology, 2023).

Data set [1] has as its target T1, EphH (Rv3338) (Mycobacterium tuberculosis, UniProt O53388). It is filed as biochemical.
The target in data set [2] is T1, EphH (Rv3338). Briefly: biochemical. To be noted: read-out: rEphH.
The test system of data set [3] is COc1ccc2cc(C(C#N)OC(=O)CC3OC3c3ccccc3)ccc2c1. Briefly: purified protein.
For data set [4], the target named is T2, sEH (human recombinant sEH) (Homo sapiens, UniProt P34913).
T2 construct: gene EPHX2
T2 sequence (P34913 1-555): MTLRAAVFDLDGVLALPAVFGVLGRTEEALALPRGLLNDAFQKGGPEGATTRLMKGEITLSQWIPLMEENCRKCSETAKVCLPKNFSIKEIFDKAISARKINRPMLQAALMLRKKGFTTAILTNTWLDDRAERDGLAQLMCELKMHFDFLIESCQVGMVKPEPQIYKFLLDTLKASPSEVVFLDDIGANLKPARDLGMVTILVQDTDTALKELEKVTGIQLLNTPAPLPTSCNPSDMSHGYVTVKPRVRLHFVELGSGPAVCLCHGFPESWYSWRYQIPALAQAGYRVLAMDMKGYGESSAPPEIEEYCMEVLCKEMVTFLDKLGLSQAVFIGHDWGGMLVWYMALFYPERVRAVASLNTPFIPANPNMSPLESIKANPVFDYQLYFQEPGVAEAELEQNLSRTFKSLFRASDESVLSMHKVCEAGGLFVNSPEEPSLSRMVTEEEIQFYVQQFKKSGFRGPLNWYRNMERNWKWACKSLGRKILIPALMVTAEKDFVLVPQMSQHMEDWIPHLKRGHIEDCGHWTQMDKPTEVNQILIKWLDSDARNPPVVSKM
Briefly: fluorescence hydrolysis assay, Michaelis-Menten (Km). The settings on record: cited from earlier work. It counts as biochemical.

T1 sequence (O53388 whole entry): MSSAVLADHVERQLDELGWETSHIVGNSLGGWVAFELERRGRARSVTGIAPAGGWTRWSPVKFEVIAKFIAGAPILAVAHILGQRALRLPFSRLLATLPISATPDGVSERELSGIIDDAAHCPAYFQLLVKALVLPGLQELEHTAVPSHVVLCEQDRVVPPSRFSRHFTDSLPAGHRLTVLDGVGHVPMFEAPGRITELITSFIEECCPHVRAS

In the case of `c1ccc(C2CO2)cc1` (racemic) [styrene oxide], the “colorimetric Red assay (NaIO4/adrenaline) with purified rEphH” value at EphH (Rv3338) [1] is reported as “EphH activity was also determined with another EH substrate, styrene oxide”.

On to `O=C(O)CCCCCCCCCCCNC(=O)NC12CC3CC(CC(C3)C1)C2` [AUDA, 12-(3-adamantane-1-yl-ureido)-dodecanoic acid], for which the IC50 at EphH (Rv3338) [2] is 9.4 ± 0.5 nM.

A word on the Km: it is the concentration of substrate that gives half-maximal velocity. A word on the Vmax: it is the top rate of the reaction or transport when substrate is in excess. As usually defined, the kcat/Km is the turnover number divided by the Michaelis constant. Regarding “EphH (Rv3338) (Mycobacterium tuberculosis H37Rv)”, in data set [3], the Km came out at 21.03 µM, the Vmax stood at 1.027 µmol/min and the kcat/Km is 870000 M⁻¹ s⁻¹.

Turning to `COc1ccc2cc(C(C#N)OC(=O)CC3OC3c3ccccc3)ccc2c1` (stereo not drawn) [PHOME, (3-phenyl-oxiranyl)-acetic acid cyano-(6-methoxynaphthalen-2-yl)-methyl ester], the Michaelis-Menten constant (Km) in data set [4] was 26.2 µM.
